{"source": "patent US20260091020A1", "about": "“TREATMENT OF ACUTE CANNABINOID OVERDOSE” (Anebulo Pharmaceuticals, Inc., priority 2022, published 2026)", "key": {"[1]": {"experiment": "Plasma PK of ANEB-001 and THC, 50 and 100 mg oral Compound 1 with THC (Example 2)", "assay_type": "in vivo, human", "conditions": "for concentration at 0 h / concentration at 0.33 h / concentration at 0.67 h / concentration at 1 h / concentration at 2 h / concentration at 3 h / concentration at 4 h / concentration at 5 h / concentration at 24 h / AUC(0-t) / Cmax / Tmax: human, in vivo; for Tmax: read-out: THC plasma tmax, Median", "method": "A phase 2 clinical study was conducted using the design outlined in FIG. 1. Briefly, 60 adult healthy volunteers ages 18-45 (20 per arm) were selected for a randomized, double blind placebo-controlled study. Volunteers were divided into three groups: (1) THC (Δ9-Tetrahydrocannabinol, 10.5 mg)+placebo; (2) THC (10.5 mg)+Compound 1 (50 mg); and (3) THC (10.5 mg)+Compound 1 (100 mg). […] A followup evaluation was also performed after 14 days. Primary endpoints included inhibition of central nervous system effects of THC using (a) visual analog scale “feeling high”; (b) visual analog scale “alertness”; (c) body sway; (d) heart rate. Secondary endpoints included additional efficacy metrics, safety/tolerability, PK, and PK/PD correlations.\nFollowing the general methods of Example 1, pharmacodynamic properties were measured for Compound 1 (FIGS. 13A-13F)."}, "[2]": {"tested_on": "central nervous system effects of THC", "experiment": "Phase 2 randomized, double-blind, placebo-controlled THC challenge study, PD endpoints (10.5 mg THC + 50 or 100 mg Compound 1)", "assay_type": "in vivo, human", "conditions": "10.5 mg THC alone (THC/placebo); score of at least 20/100 on VAS feeling high scale"}, "[3]": {"conditions": "10 mg THC + 50 mg ANEB-001, read-out: THC Concentration in Plasma, Mean"}, "[4]": {"conditions": "10 mg THC + 50 mg ANEB-001, read-out: THC Concentration in Plasma, Median"}, "[5]": {"conditions": "10 mg THC + 100 mg ANEB-001, read-out: THC Concentration in Plasma, Mean"}, "[6]": {"conditions": "10 mg THC + 100 mg ANEB-001, read-out: THC Concentration in Plasma, Median"}, "[7]": {"conditions": "10 mg THC + Placebo, read-out: THC Concentration in Plasma, Mean"}, "[8]": {"conditions": "10 mg THC + Placebo, read-out: THC Concentration in Plasma, Median"}}, "note": "Where two headings read alike, the source gives them in different places.", "data": [{"compound": "CCCCCc1cc(O)c2c(c1)OC(C)(C)[C@@H]1CCC(C)=C[C@@H]21", "note": "[THC, Δ9-tetrahydrocannabinol]", "values": [{"measurement": "THC plasma tlag, Median", "setting": "[1]; 10 mg THC + 50 mg ANEB-001", "result": 0.00, "unit": "h"}, {"measurement": "THC plasma AUClast, Mean", "setting": "[1]; 10 mg THC + 100 mg ANEB-001", "result": 6.128, "unit": "ng·h/mL"}, {"measurement": "THC plasma tlag, Median", "setting": "[1]; 10 mg THC + 100 mg ANEB-001", "result": 0.00, "unit": "h"}, {"measurement": "THC plasma AUClast, Mean", "setting": "[1]; 10 mg THC + Placebo", "result": 5.722, "unit": "ng·h/mL"}, {"measurement": "THC plasma Cmax, Median", "setting": "[1]; 10 mg THC + Placebo", "result": 2.81, "unit": "ng/mL"}, {"measurement": "THC plasma tlag, Median", "setting": "[1]; 10 mg THC + Placebo", "result": 0.00, "unit": "h"}, {"measurement": "concentration at 0 h", "setting": "[1]; [3]", "result": 0, "unit": "ng/mL"}, {"measurement": "concentration at 0 h", "setting": "[1]; [4]", "result": 0, "unit": "ng/mL"}, {"measurement": "concentration at 0.33 h", "setting": "[1]; [3]", "result": 1.27, "unit": "ng/mL"}, {"measurement": "concentration at 0.33 h", "setting": "[1]; [4]", "result": 0.738, "unit": "ng/mL"}, {"measurement": "concentration at 0.67 h", "setting": "[1]; [3]", "result": 2.9, "unit": "ng/mL"}, {"measurement": "concentration at 0.67 h", "setting": "[1]; [4]", "result": 2.41, "unit": "ng/mL"}, {"measurement": "concentration at 1 h", "setting": "[1]; [3]", "result": 2.76, "unit": "ng/mL"}, {"measurement": "concentration at 1 h", "setting": "[1]; [4]", "result": 2.6, "unit": "ng/mL"}, {"measurement": "concentration at 2 h", "setting": "[1]; [3]", "result": 1.4, "unit": "ng/mL"}, {"measurement": "concentration at 2 h", "setting": "[1]; [4]", "result": 1.18, "unit": "ng/mL"}, {"measurement": "concentration at 3 h", "setting": "[1]; [3]", "result": 0.721, "unit": "ng/mL"}, {"measurement": "concentration at 3 h", "setting": "[1]; [4]", "result": 0.689, "unit": "ng/mL"}, {"measurement": "concentration at 4 h", "setting": "[1]; [3]", "result": 0.432, "unit": "ng/mL"}, {"measurement": "concentration at 4 h", "setting": "[1]; [4]", "result": 0.379, "unit": "ng/mL"}, {"measurement": "concentration at 5 h", "setting": "[1]; [3]", "result": 0.287, "unit": "ng/mL"}, {"measurement": "concentration at 5 h", "setting": "[1]; [4]", "result": 0.264, "unit": "ng/mL"}, {"measurement": "concentration at 24 h", "setting": "[1]; [3]", "result": 0.00555, "unit": "ng/mL"}, {"measurement": "concentration at 24 h", "setting": "[1]; [4]", "result": 0, "unit": "ng/mL"}, {"measurement": "AUC(0-t)", "setting": "[1]; 10 mg THC + 50 mg ANEB-001, read-out: THC plasma AUClast, Geometric Mean", "result": 5.65, "unit": "ng·h/mL"}, {"measurement": "AUC(0-t)", "setting": "[1]; 10 mg THC + 50 mg ANEB-001, read-out: THC plasma AUClast, Mean", "result": 5.98, "unit": "ng·h/mL"}, {"measurement": "AUC(0-t)", "setting": "[1]; 10 mg THC + 50 mg ANEB-001, read-out: THC plasma AUClast, Median", "result": 5.51, "unit": "ng·h/mL"}, {"measurement": "Cmax", "setting": "[1]; 10 mg THC + 50 mg ANEB-001, read-out: THC plasma Cmax, Geometric Mean", "result": 3.14, "unit": "ng/mL"}, {"measurement": "Cmax", "setting": "[1]; 10 mg THC + 50 mg ANEB-001, read-out: THC plasma Cmax, Mean", "result": 3.4, "unit": "ng/mL"}, {"measurement": "Cmax", "setting": "[1]; 10 mg THC + 50 mg ANEB-001, read-out: THC plasma Cmax, Median", "result": 3.12, "unit": "ng/mL"}, {"measurement": "Tmax", "setting": "[1]; 10 mg THC + 50 mg ANEB-001", "result": 1, "unit": "h"}, {"measurement": "concentration at 0 h", "setting": "[1]; [5]", "result": 0, "unit": "ng/mL"}, {"measurement": "concentration at 0 h", "setting": "[1]; [6]", "result": 0, "unit": "ng/mL"}, {"measurement": "concentration at 0.33 h", "setting": "[1]; [5]", "result": 1.72, "unit": "ng/mL"}, {"measurement": "concentration at 0.33 h", "setting": "[1]; [6]", "result": 0.986, "unit": "ng/mL"}, {"measurement": "concentration at 0.67 h", "setting": "[1]; [5]", "result": 3.54, "unit": "ng/mL"}, {"measurement": "concentration at 0.67 h", "setting": "[1]; [6]", "result": 2.41, "unit": "ng/mL"}, {"measurement": "concentration at 1 h", "setting": "[1]; [5]", "result": 2.7, "unit": "ng/mL"}, {"measurement": "concentration at 1 h", "setting": "[1]; [6]", "result": 1.88, "unit": "ng/mL"}, {"measurement": "concentration at 2 h", "setting": "[1]; [5]", "result": 1.28, "unit": "ng/mL"}, {"measurement": "concentration at 2 h", "setting": "[1]; [6]", "result": 1.05, "unit": "ng/mL"}, {"measurement": "concentration at 3 h", "setting": "[1]; [5]", "result": 0.718, "unit": "ng/mL"}, {"measurement": "concentration at 3 h", "setting": "[1]; [6]", "result": 0.639, "unit": "ng/mL"}, {"measurement": "concentration at 4 h", "setting": "[1]; [5]", "result": 0.446, "unit": "ng/mL"}, {"measurement": "concentration at 4 h", "setting": "[1]; [6]", "result": 0.35, "unit": "ng/mL"}, {"measurement": "concentration at 5 h", "setting": "[1]; [5]", "result": 0.314, "unit": "ng/mL"}, {"measurement": "concentration at 5 h", "setting": "[1]; [6]", "result": 0.228, "unit": "ng/mL"}, {"measurement": "concentration at 24 h", "setting": "[1]; [5]", "result": 0.006, "unit": "ng/mL"}, {"measurement": "concentration at 24 h", "setting": "[1]; [6]", "result": 0, "unit": "ng/mL"}, {"measurement": "AUC(0-t)", "setting": "[1]; 10 mg THC + 100 mg ANEB-001, read-out: THC plasma AUClast, Geometric Mean", "result": 5.3, "unit": "ng·h/mL"}, {"measurement": "AUC(0-t)", "setting": "[1]; 10 mg THC + 100 mg ANEB-001, read-out: THC plasma AUClast, Median", "result": 4.94, "unit": "ng·h/mL"}, {"measurement": "Cmax", "setting": "[1]; 10 mg THC + 100 mg ANEB-001, read-out: THC plasma Cmax, Geometric Mean", "result": 3.08, "unit": "ng/mL"}, {"measurement": "Cmax", "setting": "[1]; 10 mg THC + 100 mg ANEB-001, read-out: THC plasma Cmax, Mean", "result": 3.77, "unit": "ng/mL"}, {"measurement": "Cmax", "setting": "[1]; 10 mg THC + 100 mg ANEB-001, read-out: THC plasma Cmax, Median", "result": 2.46, "unit": "ng/mL"}, {"measurement": "Tmax", "setting": "[1]; 10 mg THC + 100 mg ANEB-001", "result": 0.67, "unit": "h"}, {"measurement": "concentration at 0 h", "setting": "[1]; [7]", "result": 0, "unit": "ng/mL"}, {"measurement": "concentration at 0 h", "setting": "[1]; [8]", "result": 0, "unit": "ng/mL"}, {"measurement": "concentration at 0.33 h", "setting": "[1]; [7]", "result": 1.17, "unit": "ng/mL"}, {"measurement": "concentration at 0.33 h", "setting": "[1]; [8]", "result": 0.776, "unit": "ng/mL"}, {"measurement": "concentration at 0.67 h", "setting": "[1]; [7]", "result": 2.29, "unit": "ng/mL"}, {"measurement": "concentration at 0.67 h", "setting": "[1]; [8]", "result": 1.81, "unit": "ng/mL"}, {"measurement": "concentration at 1 h", "setting": "[1]; [7]", "result": 2.49, "unit": "ng/mL"}, {"measurement": "concentration at 1 h", "setting": "[1]; [8]", "result": 2.27, "unit": "ng/mL"}, {"measurement": "concentration at 2 h", "setting": "[1]; [7]", "result": 1.44, "unit": "ng/mL"}, {"measurement": "concentration at 2 h", "setting": "[1]; [8]", "result": 1.6, "unit": "ng/mL"}, {"measurement": "concentration at 3 h", "setting": "[1]; [7]", "result": 1.01, "unit": "ng/mL"}, {"measurement": "concentration at 3 h", "setting": "[1]; [8]", "result": 0.838, "unit": "ng/mL"}, {"measurement": "concentration at 4 h", "setting": "[1]; [7]", "result": 0.455, "unit": "ng/mL"}, {"measurement": "concentration at 4 h", "setting": "[1]; [8]", "result": 0.443, "unit": "ng/mL"}, {"measurement": "concentration at 5 h", "setting": "[1]; [7]", "result": 0.285, "unit": "ng/mL"}, {"measurement": "concentration at 5 h", "setting": "[1]; [8]", "result": 0.248, "unit": "ng/mL"}, {"measurement": "concentration at 24 h", "setting": "[1]; [7]", "result": 0, "unit": "ng/mL"}, {"measurement": "concentration at 24 h", "setting": "[1]; [8]", "result": 0, "unit": "ng/mL"}, {"measurement": "AUC(0-t)", "setting": "[1]; 10 mg THC + Placebo, read-out: THC plasma AUClast, Geometric Mean", "result": 5.16, "unit": "ng·h/mL"}, {"measurement": "AUC(0-t)", "setting": "[1]; 10 mg THC + Placebo, read-out: THC plasma AUClast, Median", "result": 4.96, "unit": "ng·h/mL"}, {"measurement": "Cmax", "setting": "[1]; 10 mg THC + Placebo, read-out: THC plasma Cmax, Geometric Mean", "result": 2.76, "unit": "ng/mL"}, {"measurement": "Cmax", "setting": "[1]; 10 mg THC + Placebo, read-out: THC plasma Cmax, Mean", "result": 3.15, "unit": "ng/mL"}, {"measurement": "Tmax", "setting": "[1]; 10 mg THC + Placebo", "result": 1, "unit": "h"}, {"measurement": "Proportion of subjects reporting feeling high", "setting": "[2]", "result": 75, "unit": "%"}]}]}
